We go through 2 compounds from patent US20190062340A1, “CORTISTATIN ANALOGS” (PRESIDENT AND FELLOWS OF HARVARD COLLEGE, priority 2016, published 2019).

Data set [1] deals with off-target enzymes and receptors. Put plainly: Selectivity against off-target enzymes and receptors.
The nature of data set [2]: Toxicity (weight loss) over 7 day dosing. It is filed as in vivo. The note with it: low toxicity, no significant weight loss.
Another data set has as its target hERG (Homo sapiens, UniProt Q12809). The data set is described as follows: hERG activity. Particulars: low hERG activity is defined as IC50>1 μM.
Data set [3] can be described thus: Tolerability of once-daily dosing in mice (weight loss). Particulars: once-daily at a dose that fully inhibits CDK8 kinase activity in vivo, experiment terminated.
For data set [4], the system named is human umbilical vein endothelial cells (HUVECs). The note with it: HUVEC proliferation; initial study of Aoki et al.; read-out: IC50, anti-proliferative activity against HUVECs; cited from earlier work.

As usually defined, the pIC50 is −log10 of the IC50, conventionally taken in molar units.

pIC50: −log10 of the molar value.

hERG, sequence (Q12809 whole entry): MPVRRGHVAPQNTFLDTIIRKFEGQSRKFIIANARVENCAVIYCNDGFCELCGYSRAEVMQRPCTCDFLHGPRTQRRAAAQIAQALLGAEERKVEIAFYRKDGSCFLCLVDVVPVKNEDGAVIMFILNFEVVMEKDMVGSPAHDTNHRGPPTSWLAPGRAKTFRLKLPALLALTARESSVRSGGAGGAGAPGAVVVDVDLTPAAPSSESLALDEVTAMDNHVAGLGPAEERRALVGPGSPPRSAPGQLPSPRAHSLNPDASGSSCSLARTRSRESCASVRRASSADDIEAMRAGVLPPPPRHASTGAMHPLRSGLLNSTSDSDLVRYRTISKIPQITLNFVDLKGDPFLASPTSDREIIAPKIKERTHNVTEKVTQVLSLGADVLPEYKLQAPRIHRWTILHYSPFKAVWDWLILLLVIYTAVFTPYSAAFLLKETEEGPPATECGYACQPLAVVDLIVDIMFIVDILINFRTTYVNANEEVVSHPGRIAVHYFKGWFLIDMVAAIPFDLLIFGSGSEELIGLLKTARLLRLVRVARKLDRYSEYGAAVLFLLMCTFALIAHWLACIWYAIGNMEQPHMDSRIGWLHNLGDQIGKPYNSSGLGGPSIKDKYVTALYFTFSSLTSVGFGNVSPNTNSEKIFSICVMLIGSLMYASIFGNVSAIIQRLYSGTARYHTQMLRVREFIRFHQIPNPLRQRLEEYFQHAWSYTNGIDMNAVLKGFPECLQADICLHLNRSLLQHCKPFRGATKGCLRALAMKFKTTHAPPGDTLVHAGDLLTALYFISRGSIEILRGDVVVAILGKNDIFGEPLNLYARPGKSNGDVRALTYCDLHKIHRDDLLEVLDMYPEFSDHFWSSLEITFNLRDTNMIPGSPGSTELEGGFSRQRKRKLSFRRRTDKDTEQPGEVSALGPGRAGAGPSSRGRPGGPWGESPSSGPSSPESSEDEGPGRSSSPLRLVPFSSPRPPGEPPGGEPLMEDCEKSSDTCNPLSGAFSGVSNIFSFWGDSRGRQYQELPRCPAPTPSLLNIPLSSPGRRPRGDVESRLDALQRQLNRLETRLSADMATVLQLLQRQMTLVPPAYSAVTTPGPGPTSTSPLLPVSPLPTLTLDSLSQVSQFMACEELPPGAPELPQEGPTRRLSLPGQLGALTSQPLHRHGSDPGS

Turning to `C[C@]12CC=C3C=C4CC[C@@H](O)C[C@]45CC[C@]3(O5)[C@@H]1CC[C@@H]2c1ccc2ccncc2c1` [Compound A, (3S,3 aR,9R,10aR,12aS,12bR)-3-(isoquinolin-7-yl)-3a-methyl-1,2,3,3 a,4,7,8,9,10,11,12,12b-dodecahydro-10a,12a-epoxybenzo[4,5]cyclohepta[1,2-e]inden-9-ol], the “selectivity against off-target enzymes and receptors” value in data set [1] was “high selectivity”. The weight loss in data set [2] was below 15%. For the same compound, the negative-log IC50 (pIC50) against hERG is below 6.00.
For the compound Cortistatin A, in data set [3], the “weight loss in the animal” value was “unacceptable weight loss”. In data set [4], the pIC50 is 8.74.
